ChEMBL document CHEMBL5150060 (J Med Chem, 2022)
pIC50: −log10 of the molar value. Active and inactive are the calls of the source. The calls are words filed in the database; no cut-off is given here.

How the values were obtained:
[1] = molecular target: T1, Histone deacetylase 8 (Homo sapiens) (UniProt Q9BY41); assay: Inhibition of HDAC8 in human Jurkat T cells assessed as upregulation of IL23 expression after 6 hrs by RT-qPCR analysis; format: cell-based; settings: dose 0.1-10 µM, DDE = dose-dependent effect
T1 sequence (whole entry): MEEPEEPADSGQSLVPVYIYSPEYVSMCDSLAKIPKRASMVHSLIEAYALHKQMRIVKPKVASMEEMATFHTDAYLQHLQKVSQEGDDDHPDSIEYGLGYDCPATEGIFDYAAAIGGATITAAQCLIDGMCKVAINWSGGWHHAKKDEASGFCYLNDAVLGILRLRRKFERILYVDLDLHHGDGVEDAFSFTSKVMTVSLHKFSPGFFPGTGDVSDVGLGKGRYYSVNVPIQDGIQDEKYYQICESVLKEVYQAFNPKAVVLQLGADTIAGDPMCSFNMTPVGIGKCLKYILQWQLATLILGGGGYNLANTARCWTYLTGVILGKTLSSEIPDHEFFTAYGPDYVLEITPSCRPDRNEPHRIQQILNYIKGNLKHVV

[2] = molecular target: T1, Histone deacetylase 8 (Homo sapiens); assay: Inhibition of HDAC8 in human Jurkat T cells assessed as upregulation of PRDM1 expression at 10 uM after 6 to 12 hrs by RT-qPCR analysis; format: cell-based; settings: time 6-12 hrs
[3] = Toxicity in C57BL/6 mouse assessed as change in stomach weight at 5 to 10 mg/kg, ip administered 5 days per week for 2 weeks by H and E staining based assay; format: organism-based; settings: in vivo, 336 h, dose 5-10 mg/kg
[4] = Toxicity in C57BL/6 mouse assessed as change in lung weight at 5 to 10 mg/kg, ip administered 5 days per week for 2 weeks by H and E staining based assay; format: organism-based; settings: in vivo, 336 h, dose 5-10 mg/kg
[5] = molecular target: T1, Histone deacetylase 8 (Homo sapiens); assay: Reversible binding affinity to recombinant human HDAC8 incubated for 30 mins by jump dilution method
[6] = Stability of compound in DMEM/DMSO/acetonitrile at pH 7.4 measured after 72 hrs by HPLC analysis; format: physicochemical; settings: read-out: Stability
Mus musculus [7] = assay: Immuno-modulatory activity in C57BL/6 mouse assessed as increase in proportion of CD8+ cells in spleen at 10 mg/kg, ip administered 5 days per week for 2 weeks by flow cytometry analysis; format: functional, organism-based
[8] = molecular target: T1, Histone deacetylase 8 (Homo sapiens); assay: Inhibition of HDAC8 in human Jurkat T cells assessed as upregulation of EOMES expression at 10 uM after 6 to 12 hrs by RT-qPCR analysis; format: cell-based; settings: time 6-12 hrs
[9] = molecular target: T1, Histone deacetylase 8 (Homo sapiens); assay: Inhibition of HDAC8 in human Jurkat T cells assessed as upregulation of PRDM1 expression after 6 hrs by RT-qPCR analysis; format: cell-based; settings: dose 0.1-10 µM, DDE = dose-dependent effect
[10] = molecular target: T1, Histone deacetylase 8 (Homo sapiens); assay: Inhibition of HDAC8 in human Jurkat T cells assessed as increase in H3K27 acetylation at 10 uM after 6 hrs by Western blot analysis; format: cell-based
[11] = molecular target: T2, Protein deacetylase HDAC6 (Homo sapiens, UniProt Q9UBN7); assay: Inhibition of recombinant human HDAC6 (unknown origin)
T2 sequence (Q9UBN7 whole entry): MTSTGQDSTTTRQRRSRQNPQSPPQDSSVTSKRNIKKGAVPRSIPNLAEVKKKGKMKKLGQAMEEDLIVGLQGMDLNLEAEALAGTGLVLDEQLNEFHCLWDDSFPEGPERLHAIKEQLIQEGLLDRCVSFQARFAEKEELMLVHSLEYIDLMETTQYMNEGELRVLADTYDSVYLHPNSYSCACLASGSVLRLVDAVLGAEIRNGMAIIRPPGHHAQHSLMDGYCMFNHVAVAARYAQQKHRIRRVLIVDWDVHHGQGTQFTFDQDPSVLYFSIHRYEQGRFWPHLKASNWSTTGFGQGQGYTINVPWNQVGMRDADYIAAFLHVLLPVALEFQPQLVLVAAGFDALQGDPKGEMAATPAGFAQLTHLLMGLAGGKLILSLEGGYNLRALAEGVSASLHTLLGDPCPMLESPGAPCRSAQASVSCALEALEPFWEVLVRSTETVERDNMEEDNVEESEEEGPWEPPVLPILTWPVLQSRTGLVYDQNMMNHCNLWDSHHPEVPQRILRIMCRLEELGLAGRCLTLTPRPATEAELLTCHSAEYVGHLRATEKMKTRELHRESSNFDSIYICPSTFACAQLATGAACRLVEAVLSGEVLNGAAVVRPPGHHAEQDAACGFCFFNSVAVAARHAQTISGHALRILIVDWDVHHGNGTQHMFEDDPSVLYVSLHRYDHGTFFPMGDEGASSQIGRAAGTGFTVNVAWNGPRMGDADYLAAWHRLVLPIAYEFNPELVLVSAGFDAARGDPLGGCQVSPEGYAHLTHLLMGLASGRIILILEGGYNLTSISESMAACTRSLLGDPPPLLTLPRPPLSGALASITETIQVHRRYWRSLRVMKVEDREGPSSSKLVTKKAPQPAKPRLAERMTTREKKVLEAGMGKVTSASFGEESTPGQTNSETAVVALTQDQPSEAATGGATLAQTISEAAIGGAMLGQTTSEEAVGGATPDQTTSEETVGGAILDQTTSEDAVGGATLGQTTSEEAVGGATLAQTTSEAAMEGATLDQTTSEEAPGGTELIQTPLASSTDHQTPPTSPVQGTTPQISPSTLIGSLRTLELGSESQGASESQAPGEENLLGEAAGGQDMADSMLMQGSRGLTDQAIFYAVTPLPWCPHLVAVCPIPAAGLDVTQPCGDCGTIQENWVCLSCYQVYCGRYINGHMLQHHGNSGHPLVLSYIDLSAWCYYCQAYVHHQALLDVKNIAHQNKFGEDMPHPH

Mus musculus [12] = assay: Immuno-modulatory activity in C57BL/6 mouse assessed as increase in proportion of CD3+ cells in spleen at 10 mg/kg, ip administered 5 days per week for 2 weeks by flow cytometry analysis; format: functional, organism-based
[13] = molecular target: T1, Histone deacetylase 8 (Homo sapiens); assay: Inhibition of HDAC8 in human Jurkat T cells assessed as upregulation of IL-7R expression after 6 hrs by RT-qPCR analysis; format: cell-based; settings: dose 0.1-10 µM, DDE = dose-dependent effect
[14] = molecular target: T1, Histone deacetylase 8 (Homo sapiens); assay: Inhibition of HDAC8 in human Jurkat T cells assessed as upregulation of IL23 expression at 10 uM after 6 to 12 hrs by RT-qPCR analysis; format: cell-based; settings: time 6-12 hrs
Histone deacetylase 4 = Histone deacetylase 4 (Homo sapiens, UniProt P56524); assay: Inhibition of HDAC4 (unknown origin)
[15] = molecular target: T1, Histone deacetylase 8 (Homo sapiens); assay: Inhibition of HDAC8 in human Jurkat T cells assessed as upregulation of EOMES expression after 6 hrs by RT-qPCR analysis; format: cell-based; settings: dose 0.1-10 µM, DDE = dose-dependent effect
[16] = Toxicity in C57BL/6 mouse assessed as change in liver weight at 5 to 10 mg/kg, ip administered 5 days per week for 2 weeks by H and E staining based assay; format: organism-based; settings: in vivo, 336 h, dose 5-10 mg/kg
[17] = molecular target: T1, Histone deacetylase 8 (Homo sapiens); assay: Inhibition of HDAC8 in human Jurkat T cells assessed as upregulation of BCL6 expression at 10 uM after 6 to 12 hrs by RT-qPCR analysis; format: cell-based; settings: time 6-12 hrs
[18] = molecular target: T1, Histone deacetylase 8 (Homo sapiens); assay: Inhibition of HDAC8 in human Jurkat T cells assessed as upregulation of IL15 expression after 6 hrs by RT-qPCR analysis; format: cell-based; settings: dose 0.1-10 µM, DDE = dose-dependent effect
[19] = Stability of compound in DMEM/DMSO/acetonitrile at pH 7.4 measured after 6 hrs by HPLC analysis; format: physicochemical; settings: read-out: Stability

Chain of Histone deacetylase 4 (P56524 whole entry): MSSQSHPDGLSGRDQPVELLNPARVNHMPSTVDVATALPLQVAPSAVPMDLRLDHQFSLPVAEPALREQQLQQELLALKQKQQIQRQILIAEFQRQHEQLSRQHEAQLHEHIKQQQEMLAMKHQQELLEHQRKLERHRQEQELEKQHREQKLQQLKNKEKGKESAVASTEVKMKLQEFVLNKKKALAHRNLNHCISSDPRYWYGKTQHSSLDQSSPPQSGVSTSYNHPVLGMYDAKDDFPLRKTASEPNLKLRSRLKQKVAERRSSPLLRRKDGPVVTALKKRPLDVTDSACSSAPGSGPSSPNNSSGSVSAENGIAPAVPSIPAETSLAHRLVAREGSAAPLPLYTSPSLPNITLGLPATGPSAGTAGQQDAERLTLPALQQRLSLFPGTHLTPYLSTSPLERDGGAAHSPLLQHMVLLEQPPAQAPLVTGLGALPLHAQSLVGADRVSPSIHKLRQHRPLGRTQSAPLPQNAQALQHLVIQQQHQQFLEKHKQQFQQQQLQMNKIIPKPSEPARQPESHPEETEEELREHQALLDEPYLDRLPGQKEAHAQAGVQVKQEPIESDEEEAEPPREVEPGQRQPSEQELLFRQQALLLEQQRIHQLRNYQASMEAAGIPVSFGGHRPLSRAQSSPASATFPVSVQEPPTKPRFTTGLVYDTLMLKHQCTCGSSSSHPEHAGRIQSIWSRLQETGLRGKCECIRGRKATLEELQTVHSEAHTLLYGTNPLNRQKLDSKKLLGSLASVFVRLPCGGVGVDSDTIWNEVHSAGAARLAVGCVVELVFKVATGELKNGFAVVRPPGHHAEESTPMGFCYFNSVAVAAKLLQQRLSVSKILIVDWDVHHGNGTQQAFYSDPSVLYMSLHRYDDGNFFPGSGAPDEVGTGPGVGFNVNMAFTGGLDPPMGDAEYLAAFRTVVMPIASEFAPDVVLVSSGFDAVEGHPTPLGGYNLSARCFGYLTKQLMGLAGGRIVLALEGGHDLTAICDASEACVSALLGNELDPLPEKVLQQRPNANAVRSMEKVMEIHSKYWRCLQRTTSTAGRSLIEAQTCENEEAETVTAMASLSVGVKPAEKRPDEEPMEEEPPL

CCCCCCNNC(=O)c1ccc(-c2ccc(CNC(C)=O)cc2)cc1
inhibition [1]: Dde
inhibition [2]: Active
Activity [3]: Non-Toxic
Activity [4]: Non-Toxic
Activity [5]: Active
remaining at 72 h [6]: 103%
Activity (Mus musculus [7]): Active
inhibition [8]: Active
inhibition [9]: Dde
inhibition [10]: Active
pIC50 [11]: < 4.70
Activity (Mus musculus [12]): Active
inhibition [13]: Dde
inhibition [14]: Active
pIC50 (Histone deacetylase 4): < 4.70
inhibition [15]: Dde
Activity [16]: Non-Toxic
inhibition [17]: Active
inhibition [18]: Dde
remaining at 6 h [19]: 103%
